Reference: PMC8119889, “Computational Identification of a Putative Allosteric Binding Pocket in TMPRSS2” (Frontiers in Molecular Biosciences, 2021)

Target: T1, TMPRSS2 (transmembrane serine protease 2) (Homo sapiens, UniProt O15393)
T1 construct: Recombinant human TMPRSS2 (106-492aa, 6xHisTag)
Assay: microscale thermophoresis (His-tag RED-tris-NTA labelled protein, […])
Assay type: binding

T1 sequence (O15393 106-492): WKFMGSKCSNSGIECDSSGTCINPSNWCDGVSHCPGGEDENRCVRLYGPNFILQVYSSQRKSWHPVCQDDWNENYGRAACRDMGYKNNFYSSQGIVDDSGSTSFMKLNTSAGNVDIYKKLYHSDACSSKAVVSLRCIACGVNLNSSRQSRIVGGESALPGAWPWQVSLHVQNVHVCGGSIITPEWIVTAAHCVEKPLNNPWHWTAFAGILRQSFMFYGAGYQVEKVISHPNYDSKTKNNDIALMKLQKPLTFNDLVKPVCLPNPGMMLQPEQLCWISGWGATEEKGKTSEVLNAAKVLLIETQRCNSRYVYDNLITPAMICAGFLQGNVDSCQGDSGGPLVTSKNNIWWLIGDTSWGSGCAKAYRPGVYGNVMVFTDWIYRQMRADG

CN(Cc1cc(Br)cc(Br)c1N)C1CCCCC1 [BH, bromhexine]
Kd: 24 ± 13 µM
